The compounds below were run against T1, Decaprenyl diphosphate synthase (Mycobacterium tuberculosis (strain CDC 1551 / Oshkosh), UniProt P9WFF6) (assay: DPPS Inhibition (GPP based) Assay). Conditions: pH 7.5.
T1 sequence (P9WFF6 whole entry): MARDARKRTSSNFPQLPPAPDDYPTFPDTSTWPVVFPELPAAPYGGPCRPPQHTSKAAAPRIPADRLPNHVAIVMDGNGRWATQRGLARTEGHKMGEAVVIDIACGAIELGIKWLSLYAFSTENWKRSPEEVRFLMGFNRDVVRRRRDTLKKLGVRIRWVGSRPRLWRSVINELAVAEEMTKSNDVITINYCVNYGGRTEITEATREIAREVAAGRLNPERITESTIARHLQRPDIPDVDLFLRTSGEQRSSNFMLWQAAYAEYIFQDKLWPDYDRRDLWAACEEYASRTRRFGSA
Excerpt: We screened an in-house library of 43 compounds using GPP as substrate.

Row | Compound | IC50 [µM]
1 | NCCc1cccc(C#Cc2ccc(C#Cc3cccc(CCN)c3)cc2)c1 [BPH-1427] | 3.2
2 | CCCCCCCCCCCCOc1cccc(O)c1C(=O)O [BPH-1065] | 4.5
3 | CCCCCCCCOc1cccc(C(=O)N(C)c2cccc(P(=O)(O)O)c2)c1 [BPH-1433] | 0.49
4 | CCCCCCCCOc1ccc(F)c(C(=O)Nc2ccc(F)cc2C(=O)O)c1 [BPH-1485] | 0.308
5 | CCCCCCCCCCOc1cccc(C(=O)Nc2ccc(S(N)(=O)=O)cc2C(=O)O)c1 [BPH-1256] | 0.041
6 | CCCCCCCCOc1cc(O)cc(COc2ccc(Br)cc2C(=O)O)c1 [BPH-1311] | 2.9
7 | CC(C)=CCC/C(C)=C/COc1ccc(C(=O)/C=C(\O)C(=O)O)cc1 [BPH-1379] | 4.1
8 | CCCCCCCCOc1cccc(CNC(=O)/C=C(\O)C(=O)O)c1 [BPH-1305] | 6.3
9 | CCCCCCCCOc1cccc(C(=O)Nc2cc(F)c(F)cc2C(=O)O)c1 [BPH-1455] | 0.279
10 | CCCCCCOc1ccc(C(=O)/C=C(\O)C(=O)O)cc1 [BPH-1378] | 10
11 | CCCCCCCCCCOc1cccc(COc2ccc(S(=O)(=O)N3CCN(C(C)=O)CC3)cc2C(=O)O)c1 [BPH-1165] | 3
12 | CCCCCCCCCCOc1cc(C(=O)Nc2ccc(S(N)(=O)=O)cc2C(=O)O)cc(C(=O)OC)c1 [BPH-1257] | 1.1
13 | CCCCCCCCOc1cccc(C(=O)Nc2cc(S(C)(=O)=O)ccc2C(=O)O)c1 [BPH-1467] | 0.138
14 | O=C(/C=C/c1ccc(O)c(O)c1)OC1CC(O)(C(=O)O)CC(O)C1O (stereo not given) [BPH-1068] | 2.3
15 | CCn1c2ccccc2c2cc(NC(=O)/C=C(\O)C(=O)O)ccc21 [BPH-1149] | 2
16 | CCCCCCCCOc1cccc(C(=O)Nc2ccccc2P(=O)(O)O)c1 [BPH-1440] | 0.76
17 | O=C(Nc1ccc(CCC2=NCCN2)cc1)c1ccc(C(=O)Nc2ccc(CCC3=NCCN3)cc2)cc1 [BPH-1413] | 5.8
18 | CCCCCCCCCCOc1cccc(COc2ccccc2C(=O)O)c1 [BPH-1150] | 0.7
19 | CCCCCCCCCCCCCCOc1cc([N+](=O)[O-])ccc1C(=O)O [BPH-965] | 1
20 | NCCc1cc(Br)cc(C#Cc2ccc(C#Cc3cc(Br)cc(CCN)c3)cc2)c1 [BPH-1419] | 0.57
21 | NC(=O)c1cc(NC(=O)c2ccc(C(=O)Nc3cc(C(N)=O)cc(C4=NCCN4)c3)cc2)cc(C2=NCCN2)c1 [100873, 18] | 8.4
22 | O=P(O)(O)C(O)(Cc1cccc(-c2cccc(NS(=O)(=O)c3cccc(S(=O)(=O)Nc4cccc(-c5cccc(CC(O)(P(=O)(O)O)P(=O)(O)O)c5)c4)c3)c2)c1)P(=O)(O)O [BPH-789] | 0.36
23 | CCCCCCCCOc1cccc(C(=O)Nc2ccc(Cl)cc2C(=O)O)c1 [BPH-1466] | 0.156
24 | C/C=C\C(=C/CC(=O)Nc1ccc(OC(F)(F)F)cc1C(=O)O)OCCCCCCCC [BPH-1477] | 0.043
25 | CCCCCCCOc1cccc(C(=O)Nc2ccccc2C(=O)O)c1 [BPH-1167] | 0.133
26 | CCCCCCCCOc1cccc(C(=O)Nc2cccc(P(=O)(O)O)c2)c1 [BPH-1432] | 0.21
27 | CCCCCCC1=C(C[N+](C)(C)C)C(=O)c2ccccc2C1=O [BPH-1474] | 7
28 | CCCCCCCCOc1ccc(C(=O)/C=C(\O)C(=O)O)cc1 [BPH-1330] | 20
29 | CCCCCCCCOc1cccc(P(=O)(CC(=O)C(=O)O)OCC)c1 (stereo not given) [BPH-1389] | 2.6
30 | CCCCCCCCCCCCCCSc1ccccc1C(=O)O [BPH-948] | 0.036

The compounds below were run against T1, Decaprenyl diphosphate synthase (assay: DPPS Inhibition (trans FPP based) Assay). Conditions: pH 7.5.
Excerpt: We screened an in-house library of 53 compounds using trans-FPP as substrate.

Row | Compound | IC50 [µM]
31 | O=P(O)(O)C(O)(Cc1ccc(-c2ccc(Cl)cc2)cc1)P(=O)(O)O [[2-(4'-Chloro-biphenyl-4-yl)-1-hydroxy-1-phosphono-ethyl]-phosphonic acid] | 1.5
32 | O=P(O)(O)C(O)(Cc1ccc(-c2ccccc2-c2ccccc2)cc1)P(=O)(O)O [BPH-624] | 5.4
33 | O=P(O)(O)C(O)(Cc1cccc(-c2cccc(-c3ccccc3)c2)c1)P(=O)(O)O [{1-hydroxy-2-[3-(3-phenylphenyl)phenyl]-1-phosphonoethyl}phosphonic acid] | 18
34 | O=P(O)(O)C(O)(Cc1ccc(-c2cccc(NS(=O)(=O)c3ccc4ccccc4c3)c2)cc1)P(=O)(O)O [BPH-780] | 3.8
35 | O=P(O)(O)C(O)(Cc1cccc(-c2ccccc2)c1)P(=O)(O)O [BPH-294] | 7.5
36 | O=P(O)(O)C(O)(CCc1ccc(-c2ccccc2)cc1)P(=O)(O)O [BPH-665] | 13
37 | O=P(O)(O)C(O)(Cc1ccc(-c2cccc(-c3ccccc3)c2)cc1)P(=O)(O)O [BPH-625] | 291
38 | O=P(O)(O)C(O)(Cc1ccc(-c2cccc(NS(=O)(=O)c3ccc(-c4ccccc4)cc3)c2)cc1)P(=O)(O)O [BPH-781] | 66
39 | CCCCCCCCCCCCOc1ccc[n+](CC(P(=O)(O)O)P(=O)(O)O)c1 [BPH-716] | 77
40 | O=P(O)(O)C(O)(Cc1cccc(-c2ccc(-c3ccccc3)cc2)c1)P(=O)(O)O [{1-hydroxy-2-[3-(4-phenylphenyl)phenyl]-1-phosphonoethyl}phosphonic acid] | 31
41 | O=P(O)(O)C(O)(CCc1cccc(-c2cccc(-c3ccccc3)c2)c1)P(=O)(O)O [BPH-622] | 55
42 | C=CC/C=C\C/C=C\CCCCCCCc1cccc(O)c1C(=O)O [6-[8(Z),11(Z),14-pentadecatrienyl]salicylic acid] | 280
43 | O=P(O)([CH2][Na])C(O)(Cc1ccc(-c2ccccc2)cc1)P(=O)(O)[CH2][Na] (stereo not given) [BPH-310] | 8.8
44 | O=C(c1ccccc1)c1ccc(OCCCCCC[n+]2ccccc2)cc1 [BPH-921] | 880
45 | CCCCCCCCCCCCNCC(P(=O)(O)O)P(=O)(O)O [1-[(n-Dodec-1-ylamino)ethyl]1,1-bisphosphonic acid] | 370
46 | O=P(O)(O)C(Nc1ccc(-c2ccccc2)cc1)P(=O)(O)O [(biphenyl-4-ylamino)methylenediphosphonic acid] | 4.6
47 | O=P(O)(O)C(O)(Cc1cccc(-c2cccc(NS(=O)(=O)c3ccc4ccccc4c3)c2)c1)P(=O)(O)O [(1-hydroxy-2-{3-[3-(naphthalene-2-sulfonamido)phenyl]phenyl}-1-phosphonoethyl)phosphonic acid] | 8.2
48 | O=P(O)(O)C(O)(c1ccc(-c2ccccc2)cc1)P(=O)(O)O [(Biphenyl-4-yl-hydroxy-phosphono-methyl)-phosphonic acid] | 17

Row | Compound | IC50 [µM]
49 | O=P(O)(O)C(CCCc1ccc(-c2ccccc2)cc1)P(=O)(O)O [(4-Biphenyl-4-yl-1-phosphono-butyl)-phosphonic acid] | 1.6
50 | O=P(O)(O)C(O)(CCc1cccc(-c2ccccc2-c2ccccc2)c1)P(=O)(O)O [BPH-621] | 30
51 | C=CCN(C)CCCCCCCCCCCCCCCC(=O)OC [BPH-922] | 620
52 | O=P(O)(O)C(O)(Cc1ccc(-c2ccc(-c3ccccc3)cc2)cc1)P(=O)(O)O [BPH-626] | 51
53 | CCCCCCCCCCCCSc1ccccc1C(=O)O [BPH-940] | 127
54 | O=P(O)(O)C(O)(Cc1cccc(-c2cccc(NS(=O)(=O)c3cccc(S(=O)(=O)Nc4cccc(-c5cccc(CC(O)(P(=O)(O)O)P(=O)(O)O)c5)c4)c3)c2)c1)P(=O)(O)O [BPH-789] | 5.4
55 | O=P(O)(O)C(O)(Cc1cccc(-c2ccc(F)cc2F)c1)P(=O)(O)O [[2-(2',4'-Difluoro-biphenyl-3-yl)-1-hydroxy-1-phosphono-ethyl]-phosphonic acid] | 4.3
56 | O=P(O)(O)C(O)(CCc1cccc(-c2cccc3c2oc2ccccc23)c1)P(=O)(O)O [BPH-646] | 363
57 | O=P(O)(O)C(O)(Cc1cccc(-c2cccc(NS(=O)(=O)c3ccc(-c4ccccc4)cc3)c2)c1)P(=O)(O)O [BPH-782] | 23
58 | O=P(O)(O)C(CNc1cccc(-c2ccccc2)c1)P(=O)(O)O [2-(biphenyl-3-ylamino)ethane-1,1-diyldiphosphonic acid] | 17
59 | CCCCCCCCc1cc[n+](CC(P(=O)(O)O)P(=O)(O)O)cc1 [BPH-717] | 113
60 | O=P(O)(O)[C@@H](CCCc1cccc(Oc2ccccc2)c1)S(=O)(=O)O [BPH-652] | 113
61 | O=P(O)(O)C(O)(c1cccc(-c2ccccc2)c1)P(=O)(O)O [(biphenyl-3-yl-hydroxy-phosphono-methyl)-phosphonic acid] | 40
62 | O=P(O)(O)C(C[n+]1ccc(-c2cccc3c2oc2ccccc23)cc1)P(=O)(O)O [BPH-642] | 114
63 | O=P(O)(O)C(O)(Cc1cccc(-c2cc(F)cc(F)c2)c1)P(=O)(O)O [BPH-309] | 1.7
64 | O=P(O)(O)C(C[n+]1ccc(-c2ccc(-c3ccccc3)cc2)cc1)P(=O)(O)O [BPH-632] | 498
65 | O=P(O)(O)C(Nc1cccc(-c2ccccc2)c1)P(=O)(O)O [[(Biphenyl-3-ylamino)-phosphono-methyl]-phosphonic acid] | 6.3

These compounds were tested against T1, Decaprenyl diphosphate synthase (assay: DPPS Inhibition (cis FPP based) Assay). Conditions: pH 7.5.
Excerpt: We screened an in-house library of 19 compounds using cis-FPP as substrate.

Row | Compound | IC50 [µM]
66 | O=C(O)/C(O)=C/C(=O)c1ccc(N2CCN(C(=O)c3cccc(-c4ccccc4)c3)CC2)cc1 [BPH-1381] | 15
67 | CCCCCCCCOc1ccc(F)c(C(=O)Nc2ccc(F)cc2C(=O)O)c1 [BPH-1485] | 20
68 | CCCCCCCCCCOc1cccc(CSc2ccccc2C(=O)O)c1 [BPH-1102] | 19
69 | CCCCCCCCOc1cc(O)cc(COc2ccc(Br)cc2C(=O)O)c1 [BPH-1311] | 56
70 | CCCCCCCCOc1cccc(C(=O)Nc2ccc(S(N)(=O)=O)cc2C(=O)O)c1 [BPH-1255] | 65
71 | CCCCCCCCCCOc1cccc(COc2ccccc2P(=O)(O)O)c1 [BPH-1159] | 55
72 | CCCCCCCCOc1ccc(C(=O)CSCC(=O)O)cc1 [BPH-1391] | 82
73 | Cc1ccc(S(=O)(=O)N2CCN(c3ccc(C(=O)/C=C(\O)C(=O)O)cc3)CC2)cc1 [BPH-1380] | 20
74 | CCCCCCCCCCCCCCCn1cc[n+](CC(O)(P(=O)(O)O)P(=O)(O)O)c1 [BPH-1325] | 36
75 | CCCCCCCCOc1cccc(CO/C=C/C=C(\C=C\C(=O)O)S(=O)(=O)N(C)C)c1 [BPH-1152] | 83

— BindingDB's records for doi:10.1111/cbdd.12463 (University of California San Diego, 2015)
